Data set [1] can be described thus: Evaporation rates of attractants (weight loss of vials). The format is physicochemical. The procedure: The objective of this experiment is to quantify the loss of the fatty acids and Synthetic Blend via evaporation. Synthetic Blend is prepared as per Example 3. Decanoic acid, dodecanoic acid, and tetradecanoic acid are purchased as per Example 4. Synthetic Blend is a liquid at room temperature. Vials containing between 0.235 and 0.304 grams of either Synthetic Blend or each individual fatty acid are placed in a 40° C. incubator and a ˜30° C. incubator room with a fan and are weighed after 1, 4, 10, 24, 31, 39 and 44 days. Three vials are monitored for each attractant, and the average weight loss is calculated. All samples lose weight faster at 30° C. with airflow compared to 40° C. without airflow. After […] at 30° C. with airflow, Synthetic Blend loses only 0.57% of its weight (see FIG. 2). This loss of mass is caused mostly by evaporation of decanoic acid which comprises approximately 73% of Synthetic Blend. After 24 days, Synthetic Blend loses 9.8% of its mass and after 44 days, 17.2% of its mass. A linear relationship is found between weight loss and days for both environments (see FIG. 3).

Data set [2] deals with O. cornifrons female antennae. Nature of the data set: EAG response to specific fatty acids and mixtures. Set-up: species or system Osmia cornifrons. To be noted: O. cornifrons (n = 12); 100 CE. The text has this: (§1) The objective of this example is to compare antennal responses of three Osmia species (O. lignaria, O. bucephala, and O. cornifrons obtained from near a Pennsylvania apple orchard) to each of three fatty acids, each combined mixture of two acids, and the combined mixture of all acids (see Table 11). Female and male bees are maintained in laboratory cages and fed honey-water ad libitum for four days. On the fourth day, one antenna at a time is removed from each chilled, live female test bee with scissors and placed on the electrode probe of a Syntech EAG (Kirchzarten, Germany). The electrode with the antenna is inserted into a glass tube into which flows humidified air, and into which a stimulus (air, a fatty acid, or fatty acid mixture) is applied.
(§2) Each of the above indicated fatty acids, purchased from Sigma-Aldrich (St. Louis, Mo.), are dissolved in ethyl alcohol at a concentration similar to that used for the Synthetic Blend. Each fatty acid and each mixture (Equistar Chemicals, LP, Houston, Tex.) is evenly applied to a circular filter paper in Petri dish (9 cm) at dose of 100 CE. A 1.5 cm^2 piece of filter paper is cut from the center of the filter paper circle. The piece of filter paper is placed into the disposable glass pipette (4.6 cm) that is used for delivery by applying a controlled puff of air over the filter paper.
(§3) Each of the single or mixtures of fatty acids described above (see Table 11) and a control (air) are tested on an antenna: Air or filter paper pieces with each fatty acid or fatty acids mixture are delivered in succession every minute until an antenna is exposed to each cue and air three times (total test period=30 minutes). The antennal responses are recorded, and their amplitudes are measured using Syntech EAG software (Kirchzarten, Germany). The antennal responses of ≦12 female bees per species are recorded. […]

In data set [3] the test system is O. lignaria female antennae. Nature of the data set: EAG response to specific fatty acids and mixtures. Details: species or system Osmia lignaria. To be noted: O. lignaria (n = 12); 100 CE.
Text: as §1, §2, §3

The test system of data set [4] is O. bucephala female antennae. Nature of the data set: EAG response to specific fatty acids and mixtures. The settings on record: O. bucephala (n = 8); 100 CE. Set-up: species or system Osmia bucephala.
Text: as §1, §2, §3

The subject of data set [5] is O. lignaria. The experiment in a line: Field tests with fatty acids on filter papers, apple orchard in Utah. The format is in vivo, Osmia lignaria. The settings on record: single fatty acid set; for females found in artificial nest sites, range: 9 sample dates; for Cells/replicate / Nests/replicate / Females/date: 400 CE per nest site; for Cells/replicate / Nests/replicate: five replicates; for Females/date: mean ± SE for 9 sample dates. The source says: To better understand whether application of one, or some mixture of, free fatty acids to nesting material or artificial nest sites is attractive to O. lignaria, two experimental sets are generated so that one set tests for differences in bee response to each single fatty acid and the other set tests for differences in bee response to mixtures of the fatty acids described above in Table 11. Fatty acids are applied to separate filter papers so that each filter paper contains 200 CE. As a negative control, the volume of ethyl alcohol used for the other samples is applied to its own filter paper. For the experiment in an apple orchard in Utah, each small, corrugated plastic box artificial nest site (20×23×20 cm), with two bundles of 19 paper tubes each, is hung in an apple tree; nest sites are separated by one tree between them within each replicate group. To each nest site, two of the 200 CE impregnated filter papers are applied; thus, a total of 400 CE of the stimulus is present within each nest site. Each filter paper (containing either a single fatty acid, one mixture of fatty acids, or the negative control) is attached using cable ties to the front of one tube in each of the two bundles in each artificial nest site. The filter papers are replaced weekly. Each artificial nest site contains only one type of treatment. For the single fatty acid comparison, artificial nest sites are placed in the orchard in five replicates of the three treatments plus a control (i.e., four nest sites per replicate), with each artificial nest site opening facing southeast. For the mixtures of fatty acids comparison, artificial nest sites are placed in the orchard in five replicates of the four treatments plus a control (i.e., five nest sites per replicate), with each artificial nest site opening facing southeast. Both experimental sets are located in the same orchard where they are intermittently placed but separated by at least two rows of apple trees. A total of 540 female and 1000 male bees are released throughout the orchard at least one tree row from the artificial nest sites using several release box sites (with equal numbers of bees per box). Artificial nest sites are checked daily for the presence of male and female bees and for tubes with completed nests. Tubes with completed nests are removed and are replaced with fresh ones. Later, all nests containing any bee cells are examined with x-radiography to determine number of cells in each nest.

`CCCCCCCCCC(=O)O` [Decanoic acid, decanoic acid]: in data set [1], the “relative evaporation of blend components” value was “evaporated much faster than tetradecanoic acid and dodecanoic acid”. The “Mean Amplitude ± SE” value in data set [2] is reported as −0.89 ± 0.06. The “Mean Amplitude ± SE” value in data set [3] is listed as −0.98 ± 0.06. In addition, the “Mean Amplitude ± SE” value in data set [4] is on record as −1.31 ± 0.10. Moreover, in data set [5], the “females found in artificial nest sites, range” value was 4-15; the Cells/replicate worked out at 13.4 ± 6.13; the Nests/replicate is reported as 2.6 ± 1.17; the Females/date is 10.2 ± 1.14.

Regarding `CCCCCCCCCCCC(=O)O` [Dodecanoic acid, dodecanoic acid], the “Mean Amplitude ± SE” value in data set [2] is on record as −0.43 ± 0.04; in data set [3], −0.41 ± 0.03; in data set [4] it was −0.83 ± 0.06. In data set [5], this compound gave a Cells/replicate of 8.8 ± 7.40. Also, in data set [5], the Nests/replicate was 1.4 ± 1.17. For the same compound, the Females/date in data set [5] is 3.4 ± 0.67.

As to `CCCCCCCCCCCCCC(=O)O` [Tetradecanoic acid, tetradecanoic acid], the “Mean Amplitude ± SE” value in data set [2] is listed as −0.43 ± 0.04. In data set [3], the “Mean Amplitude ± SE” value is −0.41 ± 0.03. The “Mean Amplitude ± SE” value in data set [4] is −0.92 ± 0.07. Moreover, in data set [5], the “females found in artificial nest sites, range” value is listed as 0-1; the Cells/replicate came to 1.6 ± 1.6; the Nests/replicate turned out to be 0.2 ± 0.2; the Females/date turned out to be 0.4 ± 0.17.

(Values after patent US9301521B2, “Bee attractants” (priority 2013, dated 2016).)
